One assay relates to AIM-expressing isolates. Description: Clinical isolate screening with meropenem. The class given is cell-based, Enterobacteriaceae, Acinetobacter spp. and Pseudomonas spp. The settings on record: meropenem 2 μg/ml, AM-A 8 μg/ml. The protocol: (§1) Various concentrations of AM-A were chosen in combination with 2 mg/L of meropenem which is the EUCAST breakpoint for resistance^28. Synergistic properties of the two compounds were examined in a micro-titre tray using BHI as the growth medium (Oxford Science Park, England) and an inoculum of 0.5 MacFarland. All plates contained the control strains Escherichia coli ATCC 25922 and Pseudomonas aeruginosa ATCC 27853. Overall, 226 non-clonal clinical isolates (Enterobacteriaceae, P. aeruginosa and Acinetobacter spp.) were challenged containing one of the following MBLs: SPM-1 (n=17), AIM-1 (n=8), NDM-1 (n=67), VIM-type (n=114) or IMP-type (n=20). […] Plates were incubated at 37° C. and read after 18 hrs.

The next assay deals with VIM positive isolates. Description: Clinical isolate screening with meropenem. Format: cell-based, Enterobacteriaceae, Acinetobacter spp. and Pseudomonas spp. The settings on record: AM-A 8 μg/ml, meropenem 2 μg/ml. The protocol:
as §1

A further assay concerns NDM positives isolates. Description: Clinical isolate screening with meropenem. The class given is cell-based, Enterobacteriaceae, Acinetobacter spp. and Pseudomonas spp. The settings on record: AM-A 8 μg/ml, meropenem 2 μg/ml. The protocol:
as §1

The test system of a further assay is IMP-expressing isolates. Description: Clinical isolate screening with meropenem. Format: cell-based, Enterobacteriaceae, Acinetobacter spp. and Pseudomonas spp. The settings on record: meropenem 2 μg/ml, AM-A 8 μg/ml. Here is the method: as §1
Assay [1] relates to SPM-1-expressing isolates. Description: Clinical isolate screening with meropenem. The class given is cell-based, Enterobacteriaceae, Acinetobacter spp. and Pseudomonas spp. The settings on record: meropenem 2 μg/ml, AM-A 8 μg/ml. Here is the method:
as §1

For another assay, the target named is NDM-1 (Klebsiella pneumoniae, UniProt C7C422). Description: IC50 enzyme inhibition assay, nitrocefin reporter substrate. The class given is biochemical. Details: All β-lactamase overexpression constructs were generated without the leader peptide in a pET-28b plasmid containing a N-terminal His Tag; His tag (N, cleaved yes); SUMO (implied by the use of SUMO protease) (N, cleaved yes); made in house; host or cells: E. coli BL21(DE3). Here is the method:
(§2) Enzyme (NDM-1, 5 nM; VIM-2, 500 pM; CTX-M-15, 500 pM; KPC-2, 5 nM; OXA-48, 1 nM; TEM-1, 100 pM; ACE, 50 nM) was mixed with 30 μM nitrocefin (100 μM nitrocefin for TEM-1; 250 µM furanacryloyl-L-phenylalanylglycylglycine [FAPGG] for ACE^24) after a 5-10 minute preincubation with AM-A. Metallo-enzymes were supplemented with 10 μM ZnSO4. Assays were read in 96-well microplate format at 490 nm using a Spectramax reader (Molecular Devices) at 30-37° C.
E. coli strain BW25113 was modified by deletion of the bamB and tolC genes so as to increase permeability to and reduce efflux of small molecules. This strain was then further modified by the single-copy chromosomal insertion of the blaNDM-1 gene under control of the pLac promoter. Microbial natural product extracts were screened against this strain in the presence of sublethal ¼ MIC meropenem. AM-A was purified from a hit extract and its structure elucidated by NMR, mass spectrometry and polarimetry. IC50 values for AM-A were determined using nitrocefin (for MBLs and Ser BLs) and furanacryloyl-L-phenylalanylglycylglycine (for ACE)^21 as reporter substrates against the following purified enzymes: MBLs IMP-7, VIM-2, and NDM-1; SBLs CTX-M-15, KPC-2, OXA-48, and TEM-1; as well as ACE from rabbit lung. […] FIC values were determined using standard methods^27. […]

The target of another assay is T1, OXA-48 (Klebsiella pneumoniae, UniProt Q6XEC0).
T1 construct: All β-lactamase overexpression constructs were generated without the leader peptide in a pET-28b plasmid containing a N-terminal His Tag; His tag (N); made in house; host or cells: E. coli BL21(DE3)
T1 sequence (Q6XEC0 23-265 limits assumed): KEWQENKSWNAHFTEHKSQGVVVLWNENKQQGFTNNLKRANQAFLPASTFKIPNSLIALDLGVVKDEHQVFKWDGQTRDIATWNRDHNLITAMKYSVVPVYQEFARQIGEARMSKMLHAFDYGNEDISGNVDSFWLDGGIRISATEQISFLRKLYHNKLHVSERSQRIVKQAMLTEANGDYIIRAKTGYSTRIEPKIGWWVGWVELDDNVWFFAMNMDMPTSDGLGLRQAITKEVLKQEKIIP
The description is as above. The class given is biochemical. Here is the method:
as §2
(§3) E. coli strain BW25113 was modified by deletion of the bamB and tolC genes so as to increase permeability to and reduce efflux of small molecules. This strain was then further modified by the single-copy chromosomal insertion of the blaNDM-1 gene under control of the pLac promoter. Microbial natural product extracts were screened against this strain in the presence of sublethal ¼ MIC meropenem. AM-A was purified from a hit extract and its structure elucidated by NMR, mass spectrometry and polarimetry. IC50 values for AM-A were determined using nitrocefin (for MBLs and Ser BLs) and furanacryloyl-L-phenylalanylglycylglycine (for ACE)^21 as reporter substrates against the following purified enzymes: MBLs IMP-7, VIM-2, and NDM-1; SBLs CTX-M-15, KPC-2, OXA-48, and TEM-1; as well as ACE from rabbit lung. IC50, reversibility, Zn^2+ restoration, and inactivation enzyme assays were performed in 50 mM HEPES pH 7.5 and measured using a SpectraMax reader (Molecular Devices). ICP-MS experiments were conducted using purified NDM-1 at 5 mg/mL and varying concentrations of AM-A with subsequent dilution and transfer by nebulization into a NexION 3000 ICP mass spectrometer (Perkin Elmer). FIC values were determined using standard methods^27. Various concentrations of AM-A were tested in combination with 2 mg/L meropenem against 200+MBL-expressing clinical isolates including Pseudomonas spp., Acinetobacter spp., and Enterobacteriaceae. A dose of 2×10^6 forming units (cfu) of Klebsiella pneumoniae N11-2218 was used for all organ bacterial load experiments and a dose of 5×10^7cfu for all survival experiments. For all experiments, mice were treated with compound 30 minutes post infection.

The next assay deals with IMP-7. The assay is described as above. Format: biochemical. The protocol: as §2, §3
Another assay has as its target T2, KPC-2 (Klebsiella pneumoniae, UniProt Q9F663).
T2 construct: All β-lactamase overexpression constructs were generated without the leader peptide in a pET-28b plasmid containing a N-terminal His Tag; His tag (N); made in house
Described as above. Format: biochemical. Here is the method:
as §2, §3

A further assay has as its target T3, TEM-1 (Escherichia coli, UniProt P62593).
T3 construct: All β-lactamase overexpression constructs were generated without the leader peptide in a pET-28b plasmid containing a N-terminal His Tag; His tag (N); made in house; host or cells: E. coli BL21(DE3)
The assay is described as above. Format: biochemical. The protocol: as §2, §3

For assay [2], the target named is T4, VIM-2 (Escherichia coli, UniProt Q5U7L7).
T4 construct: All β-lactamase overexpression constructs were generated without the leader peptide in a pET-28b plasmid containing a N-terminal His Tag; His tag (N); made in house; host or cells: E. coli BL21(DE3)
Described as above. The class given is biochemical. The protocol:
as §2, §3

The target in another assay is T5, CTX-M-15 (Escherichia coli, UniProt Q9EXV5).
T5 construct: All β-lactamase overexpression constructs were generated without the leader peptide in a pET-28b plasmid containing a N-terminal His Tag; His tag (N); made in house; host or cells: E. coli BL21(DE3)
T5 sequence (Q9EXV5 entry or part of it): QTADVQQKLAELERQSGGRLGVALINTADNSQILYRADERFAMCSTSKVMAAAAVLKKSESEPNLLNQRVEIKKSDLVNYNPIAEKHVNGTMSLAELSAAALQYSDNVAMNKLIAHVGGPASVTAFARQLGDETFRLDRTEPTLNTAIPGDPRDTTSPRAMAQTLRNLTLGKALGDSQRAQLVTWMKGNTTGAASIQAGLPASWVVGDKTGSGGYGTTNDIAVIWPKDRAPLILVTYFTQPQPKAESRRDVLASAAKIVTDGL
The assay is described as above. Format: biochemical. Here is the method:
as §2, §3

Assay [3] concerns the target T4, VIM-2. The experiment in a line: Incubation of AM-A with metalloenzymes in Zn2+-depleted buffer. Format: biochemical. The settings on record: extended incubation, AM-A 0.5 mM. The protocol: Enzyme (500 nM) was incubated with AM-A (500 μM) for 10 minutes. 20 μL of the above was diluted with 180 μL nitrocefin or FAPGG substrate for the following final concentrations: Enzyme (50 nM), FAPGG (50 μM)/nitrocefin (20 μM), AM-A (50 μM). Buffer (50 mM HEPES pH 7.5, 300 mM NaCl) was stirred overnight with 2 g/100 mL Chelex-100 (Biorad; Richmond, Calif.). Assays were read in 96-well microplate format at 490 nm using a Spectramax reader (Molecular Devices) at 37° C.

Structures are written as SMILES. “Also recorded” adds a separate entry of the source.

As a reminder, the IC50 is the concentration at which inhibition is half-maximal.

Sequence of NDM-1 (C7C422 29-270 limits assumed): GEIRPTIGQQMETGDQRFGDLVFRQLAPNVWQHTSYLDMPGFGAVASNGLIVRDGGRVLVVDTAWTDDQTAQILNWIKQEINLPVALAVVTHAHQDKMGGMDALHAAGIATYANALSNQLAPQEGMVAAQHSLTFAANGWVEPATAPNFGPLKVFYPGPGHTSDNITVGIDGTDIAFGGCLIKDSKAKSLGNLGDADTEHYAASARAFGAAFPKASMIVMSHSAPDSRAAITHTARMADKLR
T2 sequence (Q9F663 25-293 limits assumed): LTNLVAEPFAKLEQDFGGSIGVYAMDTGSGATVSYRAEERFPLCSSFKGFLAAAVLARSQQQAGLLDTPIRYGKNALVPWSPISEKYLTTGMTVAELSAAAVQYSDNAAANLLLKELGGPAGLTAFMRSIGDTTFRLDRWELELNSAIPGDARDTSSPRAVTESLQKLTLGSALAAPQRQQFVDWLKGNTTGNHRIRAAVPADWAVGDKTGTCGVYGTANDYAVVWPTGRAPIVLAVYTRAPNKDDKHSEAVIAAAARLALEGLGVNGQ
T3 sequence (P62593 24-286 limits assumed): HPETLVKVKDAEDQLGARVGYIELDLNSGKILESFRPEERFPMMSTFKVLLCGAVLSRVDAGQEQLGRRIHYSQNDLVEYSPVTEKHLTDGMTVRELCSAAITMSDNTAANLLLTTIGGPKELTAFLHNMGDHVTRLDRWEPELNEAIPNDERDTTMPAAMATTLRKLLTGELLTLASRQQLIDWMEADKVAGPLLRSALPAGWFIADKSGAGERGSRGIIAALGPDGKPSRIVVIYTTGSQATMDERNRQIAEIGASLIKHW

As to `N[C@H](CN[C@H](CN[C@@H](CC(=O)O)C(=O)O)C(=O)O)C(=O)O` [AM-A, aspergillomarasmine A], the “potentiation of meropenem / susceptibility to combination” value (in the assay with AIM-expressing isolates; in the assay on IMP-expressing isolates; in assay [1]) was “very little potentiation; also recorded: remained resistant” in each case. For the same compound, the “isolates with meropenem sensitivity restored” value in the assay with VIM positive isolates is 90%; in the assay with NDM positives isolates, 88%. Moreover, the “susceptibility to meropenem/AM-A combination” value in the assay on VIM positive isolates and in the assay on NDM positives isolates was “highly susceptible” throughout. Besides, the “in vitro inhibition of NDM-1” value at NDM-1 is “potent in vitro dose-dependent inhibition”. Also, on OXA-48, the “effect on activity of OXA-48” value is recorded as “no effect; also recorded: unaffected”. In addition, in the assay on IMP-7, the “activity against IMP-7” value is given as “weaker activity; also recorded: less potent inactivation”. For the same compound, the “effect on KPC-2” value at KPC-2 is listed as “no effect”. For the same compound, on TEM-1, the “effect on TEM-1” value is listed as “no effect”. For the same compound, the IC50 at VIM-2 [2] turned out to be 9.6 ± 2.4 µM. Moreover, the “in vitro inhibition of VIM-2” value at VIM-2 [2] is reported as “potent in vitro dose-dependent inhibition”. In addition, the “effect on CTX-M-15” value at CTX-M-15 was “no effect”. The “inactivation of VIM-2” value on VIM-2 [3] was “complete inactivation”.

These data come from patent publication US10016383B2, “Inhibitors of metallo-β-lactamase-enzymes” (McMaster University, priority 2013, dated 2018).
